In patent publication US20240398783A1, “Compounds and Pharmaceutical Compositions Comprising Inhibitors of Amyloid Peptide Interactions with Glycosaminoglycans, Methods of Treatment and Use Thereof” (Gismo Therapeutics, Inc., priority 2021, published 2024):
Where a name gives a salt, the structure may show the parent alone.

molecular target: T1, Amyloid-beta(1-42) oligomer binding to heparin (HS-GAG) (Homo sapiens, UniProt P05067); experiment: Inhibition of Amyloid-beta(1-42) oligomer binding to immobilized heparin-BSA (ELISA); set-up: species or system porcine; conditions: 30 μM compound; Abeta(1-42) oligomers, heparin-BSA; read-out: Abeta42/Heparin Activity (% inhibition class)
T1 construct: Beta-amyloid (1-42) was purchased from rPeptide (Cat. No. A1163); purchased rPeptide A1163
T1 sequence (P05067 672-713): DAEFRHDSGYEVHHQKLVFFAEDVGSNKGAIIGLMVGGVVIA
Procedure: Porcine intestinal mucosa heparin conjugated to Bovine Serum Albumin (Heparin-BSA) was prepared as described (Najjam, S. et al. 1997, Cytokine 12, 1013-1022). Heparin is a sulfated HS-GAG and is commonly used as a HS-GAG in biochemical and binding assays (Lindahl, U. and Kjellen, L. (2013) ibid). Heparin-BSA at 0.01 mg/ml in Phosphate Buffered Saline (PBS; pH 7.4) was added to a 96 well polystyrene ELISA plate (NUNC Cat. No. 449824; 100 μl per well) and incubated Over Night (ON) at 4 degrees Celsius. For negative controls, ELISA plates were coated with BSA instead of Heparin-BSA, using the same procedure. Following the incubation, the plate was washed consecutively, by immersion, with de-ionized water and PBS (pH 7.4). The ELISA plate was then blocked with nonfat milk (2%, 200 μl per well) for 2 hours at Room Temperature (RT) with gentle shaking. Following blocking, the plate was washed with de-ionized water then PBS (pH 7.4). GBAPs were dissolved and diluted in PBS (pH 6.5, supplemented with 0.1% BSA) at desired concentrations, added to the ELISA plates containing immobilized Heparin-BSA (100 μl per well) and incubated for 2 hours at RT with gentle shaking. Following incubation, the plate was washed with de-ionized water and three times with PBS (pH 6.5) plus Tween. Bound GBAP was detected by a monoclonal antibody specific for that GBAP, followed by incubation with secondary antibody conjugated to horseradish peroxidase (HRP). Antibody was diluted in PBS (pH 6.5 supplemented with 1% BSA). Following each incubation with antibody, the plate was washed with de-ionized water and three times with PBS (pH 6.5) wash buffer containing 0.1% Tween. The peroxidase substrate chromogen, TMB (Dako Cat. No. S1599) was added (100 μl per well) to the ELISA plate and incubated at room temperature. After 5 minutes ELISA Stop Solution (hydrochloric acid 1N, sulfuric acid 3N) was added (100 μl per well) to stop the peroxidase catalyzed colorimetric reaction. The Optical Density of the samples was measured at 450 nm using an ELISA plate reader (BioTek Synergy H1). Following color development, the % inhibition compared to control (BSA-coated plates) was determined. IC-50s were calculated using GraphPad Prism software.
The assay was performed as described in Example 43, with the following modifications. Following to coating the plates with Heparin-BSA, plates were washed as described. The compounds were dissolved in DMSO at 10 mM final concentration and further diluted prior to assay. DMSO concentration in the screening well was up to 2%. Individual compounds were co-incubated with Beta-amyloid peptides on plates containing immobilized heparin. Beta-amyloid (1-42) was purchased from rPeptide (Cat. No. A1163) and used to prepare oligomers according to Stine et al., 2003 (J Biol Chem. 278(13):11612-22) as follows. 1,1,1,3,3,3-Hexafluoro-2-propanol- (HFIP; Sigma Cat. No. 105228)-treated Beta amyloid (1-42) was dissolved in dry DMSO (Sigma Cat. No. D2650) to 5 mM concentration. Dissolved Beta amyloid (1-42) was then diluted to 100 μM in ice-cold cell culture medium (phenol red-free Ham's F-12; Caisson Labs, Cat. No. HFL05), followed immediately by vortexing for 30 seconds, and incubating at 4 degrees Celsius for 24 h. Resulting Beta amyloid (1-42) oligomers were centrifuged at 12,000 rpm for 10 min at 4 degree Celsius to remove aggregates. Oligomers were then quickly frozen and kept in aliquots at −80 degrees Celsius. Beta-amyloid (1-40) from rPeptide (Cat No. A1153) was dissolved in DMSO, quickly frozen and kept in aliquots at −80 degrees Celsius. Beta-amyloid (1-42) oligomers or Beta-amyloid (1-40) diluted in PBS (pH 6.5, supplemented with BSA, 0.1%) were added to the ELISA plate (100 μl per well) and incubated for 2 hours at RT with gentle shaking. Following the incubation, the plate was washed with de-ionized water and three times with PBS (pH 6.5) plus Tween. […]

For `C[n+]1ccc(/C=N\Nc2ccnc3ccccc23)cc1` [Compound 9, (Z)-1-methyl-4-((2-(quinolin-4-yl)hydrazono)methyl)pyridin-1-ium iodide], which inhibition at 30 µM is on record?
Its inhibition at 30 µM is less than 30%.

`COc1cc(Nc2nncc3cc(Cl)ccc23)cnc1-n1cnc(C)c1C` [Compound 31, 6-chloro-N-(6-(4,5-dimethyl-1H-imidazol-1-yl)-5-methoxypyridin-3-yl)phthalazin-1-amine phosphoric acid salt] was tested. Which inhibition at 30 µM did it give?
The inhibition at 30 µM was less than 30%.

How did the inhibition at 30 µM turn out when `C/C(=N\Nc1ncnc2cc(Cl)ccc12)c1cccc(CN(C)C)c1` [Compound 29, 1-(3-(1-(2-(7-chloroquinazolin-4-yl)hydrazineylidene)ethyl)phenyl)—N,N-dimethylmethanamine] was run?
Its inhibition at 30 µM is greater than 30%.

How did the inhibition at 30 µM turn out when `CN1CCN(Cc2ccc(/C=N/Nc3ccnc4cc(Cl)ccc34)cc2)CC1` [Compound 7, (E)-7-chloro-4-(2-(4-((4-methylpiperazin-1-yl)methyl)benzylidene)hydrazinyl)quinolone] was run?
Its inhibition at 30 µM is less than 30%.

same assay, conditions: Abeta(1-42) oligomers, co-incubation on heparin-BSA plates; read-out: Abeta42/Heparin Activity (IC-50)

For `Cc1ncn(-c2ncc(Nc3ncnc4cc(Cl)ccc34)cc2O)c1C` [Compound 40, 5-((7-chloroquinazolin-4-yl)amino)-2-(4,5-dimethyl-1H-imidazol-1-yl)pyridin-3-ol phosphoric acid salt], which IC50 is on record?
The IC50 was 8.65 µM.

How did the IC50 turn out when `C/C(=N\Nc1ncnc2cc(Cl)ccc12)c1ccc(-n2cnc(C)c2C)nc1` [Compound 16, 7-chloro-4-(2-(1-(6-(4,5-dimethyl-1H-imidazol-1-yl)pyridin-3-yl)ethylidene)hydrazineyl)quinazoline phosphate] was run?
The IC50 was 5.48 µM.

`Cc1ncn(-c2ccc(Nc3ncnc4cc(Cl)ccc34)cn2)c1C` [Compound 25, 7-chloro-N-(6-(4,5-dimethyl-1H-imidazol-1-yl)pyridin-3-yl)quinazolin-4-amine] was tested. Which IC50 did it give?
The IC50 was 9.9 µM.

`Cc1ncn(-c2ccc(/C=N/Nc3ccnc4cc(Cl)ccc34)cc2)c1C` [Compound 2, (E)-7-chloro-4-((E)-(4-(4,5-dimethyl-1H-imidazol-1-yl)benzylidene)hydrazono)-1,4-dihydroquinoline] was tested. Which IC50 did it give?
The IC50 was 30.7 µM.

With `Clc1ccc2c(Nc3ccc(-n4cncn4)nc3)ncnc2c1` [Compound 34, N-(6-(1H-1,2,4-triazol-1-yl)pyridin-3-yl)-7-chloroquinazolin-4-amine phosphoric acid salt] as the compound, how does the IC50 read?
The IC50 was 9.93 µM.

For `Clc1ccc2c(N/N=C/c3ccc(-n4ccnc4)cc3)ccnc2c1` [Compound 38, 4-(2-(4-(1H-imidazol-1-yl)benzylidene)hydrazineyl)-7-chloroquinoline dihydrochloride], which IC50 is on record?
Its IC50 is 2.74 µM.

How did the IC50 turn out when `Clc1ccc2c(Nc3ccc(-n4ccnc4)nc3)ncnc2c1` [Compound 41, N-(6-(1H-imidazol-1-yl)pyridin-3-yl)-7-chloroquinazolin-4-amine] was run?
The IC50 was 72.4 µM.

With `Clc1ccc2c(Nc3ccc(-n4cncn4)nc3)ccnc2c1` [Compound 44, N-(6-(1H-1,2,4-triazol-1-yl)pyridin-3-yl)-7-chloroquinolin-4-amine] as the compound, how does the IC50 read?
Its IC50 is 35.7 µM.

same assay, conditions: read-out: Abeta42/Heparin Activity (% inhibition class)

For `Fc1ccc2c(N/N=C/c3ccc(-n4ccnc4)cc3)ccnc2c1` [Compound 5, (E)-4-(2-(4-(1H-imidazol-1-yl)benzylidene)hydrazinyl)-7-fluoroquinoline], which inhibition at 30 µM is on record?
Its inhibition at 30 µM is less than 30%.

`C(=N\Nc1ccc2c3c(cccc13)CC2)/c1ccc(-n2ccnc2)cc1` [Compound 8, (E)-1-(4-((2-(1,2-dihydroacenaphthylen-5-yl)hydrazineylidene)methyl)phenyl)-1H-imidazole] was tested. Which inhibition at 30 µM did it give?
Its inhibition at 30 µM is less than 30%.

`COc1cc2nccc(N/N=C/c3ccc(-n4ccnc4)c(OC)c3)c2cc1OC` [Compound 13, (E)-4-(2-(4-(1H-imidazol-1-yl)-3-methoxybenzylidene)hydrazineyl)-6,7-dimethoxyquinoline phosphate] was tested. Which inhibition at 30 µM did it give?
The inhibition at 30 µM was less than 30%.

`C/C(=N\Nc1ncnc2cc(Cl)ccc12)c1cccc(N2CCN(C)CC2)c1` [Compound 30, 7-chloro-4-(2-(1-(3-(4-methylpiperazin-1-yl)phenyl)ethylidene)hydrazineyl)quinazoline] was tested. Which inhibition at 30 µM did it give?
The inhibition at 30 µM was greater than 30%.
